Data from patent publication US4150023A, “Hydrosoluble rifamycins and process for their preparation” (Intreprinderea de Antibiotice Iasi, priority 1977, dated 1979).
In brackets after ≈: the same amount, converted by molar mass. Where a name gives a salt, the structure may show the parent alone.

Assays:
[1] = physchem; format: physicochemical
Description: When the work is carried out as in above mentioned examples, using 2 mol of sodium ethylhexanoate versus 1 mol of rifamycin derivative, the soluble forms of other derivatives, presented in Table 1, are obtained using the specific volumes of solvent, and resulting in the products characterized by the main proprieties tabulated.

[2] = test system: ill subjects treated with rifampicin; conditions: cited from earlier work

`CO[C@H]1/C=C/O[C@@]2(C)Oc3c(C)c(O)c4c(O)c(c(C=NOCCBr)c(O)c4c3C2=O)NC(=O)/C(C)=C\C=C\[C@H](C)[C@H](O)[C@@H](C)[C@@H](O)[C@@H](C)[C@H](OC(C)=O)[C@@H]1C` [3-(2-bromethyloximinomethyl)-rifamycin SV, reference compound] showed a solubility ([1]; Solubility as such) of 2950 µg/mL (≈ 3.48 mM).

Compound `CCON=Cc1c2c(O)c3c(O)c(C)c4c(c3c1O)C(=O)[C@@](C)(O/C=C/[C@H](OC)[C@@H](C)[C@@H](OC(C)=O)[C@H](C)[C@H](O)[C@H](C)[C@@H](O)[C@@H](C)/C=C/C=C(/C)C(=O)N2)O4` [3-(ethyloximinomethyl)rifamycin SV, reference compound] has a solubility ([1]; Solubility as such) of 120 µg/mL (≈ 0.156 mM).

For `CO[C@H]1/C=C/O[C@@]2(C)Oc3c(C)c(O)c4c(O)c(c(C=NNC(=O)c5ccncc5)c(O)c4c3C2=O)NC(=O)/C(C)=C\C=C\[C@H](C)[C@H](O)[C@@H](C)[C@@H](O)[C@@H](C)[C@H](OC(C)=O)[C@@H]1C` [3-(isonicotinoylhydrazonomethyl)-rifamycin SV, reference compound], the solubility ([1]; Solubility as such) was 920 µg/mL (≈ 1.09 mM).

Compound `CO[C@H]1/C=C/O[C@@]2(C)Oc3c(C)c(O)c4c(O)c(c(C=NNC(=O)Cc5ccccc5)c(O)c4c3C2=O)NC(=O)/C(C)=C\C=C\[C@H](C)[C@H](O)[C@@H](C)[C@@H](O)[C@@H](C)[C@H](OC(C)=O)[C@@H]1C` [3-(phenylacetylhydrazonomethyl)-rifamycin SV, reference compound] has a solubility ([1]; Solubility as such) of 4800 µg/mL (≈ 5.59 mM).

In the case of `CO[C@H]1/C=C/O[C@@]2(C)Oc3c(C)c(O)c4c(O)c(c(C=NNc5ccc(-c6ccc(C)c(C)c6)nn5)c(O)c4c3C2=O)NC(=O)/C(C)=C\C=C\[C@H](C)[C@H](O)[C@@H](C)[C@@H](O)[C@@H](C)[C@H](OC(C)=O)[C@@H]1C` [3-[3'-(3",4"-dimethylphenyl)-pyridazinyl-6'-hydrazonomethyl]-rifamycin SV, reference compound], the solubility ([1]; Solubility as such) is reported as < 100 µg/mL.

For `CO[C@H]1/C=C/O[C@@]2(C)Oc3c(C)c(O)c4c(O)c(c(C=NNc5ccc(-c6ccc(C)cc6)nn5)c(O)c4c3C2=O)NC(=O)/C(C)=C\C=C\[C@H](C)[C@H](O)[C@@H](C)[C@@H](O)[C@@H](C)[C@H](OC(C)=O)[C@@H]1C` [3-[3'-(p-tolyl)-pyridazinyl-6'-hydrazonomethyl]-rifamycin SV, reference compound], the solubility ([1]; Solubility as such) was 270 µg/mL (≈ 0.297 mM).

`CO[C@H]1/C=C/O[C@@]2(C)Oc3c(C)c(O)c4c(O)c(c(C=NO)c(O)c4c3C2=O)NC(=O)/C(C)=C\C=C\[C@H](C)[C@H](O)[C@@H](C)[C@@H](O)[C@@H](C)[C@H](OC(C)=O)[C@@H]1C` [3-formylrifamycin SV oxime, reference compound] gave a solubility ([1]; Solubility as such) of 5500 µg/mL (≈ 7.42 mM).

`CO[C@H]1/C=C/O[C@@]2(C)Oc3c(C)c(O)c4c(O)c(c(C=NNC(=O)COc5ccccc5)c(O)c4c3C2=O)NC(=O)/C(C)=C\C=C\[C@H](C)[C@H](O)[C@@H](C)[C@@H](O)[C@@H](C)[C@H](OC(C)=O)[C@@H]1C` [3-phenoxyacetylhydrazonomethyl)-rifamysin SV, reference compound] gave a solubility ([1]; Solubility as such) of 2750 µg/mL (≈ 3.15 mM).

In the case of `CO[C@H]1/C=C/O[C@@]2(C)Oc3c(C)c(O)c4c(O)c(c(C=NO)c(O)c4c3C2=O)NC(=O)/C(C)=C\C=C\[C@H](C)[C@H](O)[C@@H](C)[C@@H](O)[C@@H](C)[C@H](OC(C)=O)[C@@H]1C` [Example 7, 3-formylrifamycin SV oxime], the Solubility soluble form [1] is reported as “over 100 mg/ml”.

With `CO[C@H]1/C=C/O[C@@]2(C)Oc3c(C)c(O)c4c(O)c(c(C=NO)c(O)c4c3C2=O)NC(=O)/C(C)=C\C=C\[C@H](C)[C@H](O)[C@@H](C)[C@@H](O)[C@@H](C)[C@H](OC(C)=O)[C@@H]1C` [Example 8, 3-formylrifamycin SV oxime (K salt)] the Solubility soluble form [1] was 25000 µg/mL.

In the case of `CCON=Cc1c2c(O)c3c(O)c(C)c4c(c3c1O)C(=O)[C@@](C)(O/C=C/[C@H](OC)[C@@H](C)[C@@H](OC(C)=O)[C@H](C)[C@H](O)[C@H](C)[C@@H](O)[C@@H](C)/C=C/C=C(/C)C(=O)N2)O4` [Example 9, 3-(ethyloximinomethyl)rifamycin SV], the solubility ([1]; Solubility soluble form) is reported as > 100000 µg/mL.

In the case of `CO[C@H]1/C=C/O[C@@]2(C)Oc3c(C)c(O)c4c(O)c(c(C=NOCCBr)c(O)c4c3C2=O)NC(=O)/C(C)=C\C=C\[C@H](C)[C@H](O)[C@@H](C)[C@@H](O)[C@@H](C)[C@H](OC(C)=O)[C@@H]1C` [Example 10, 3-(2-bromethyloximinomethyl)-rifamycin SV], the solubility ([1]; Solubility soluble form) is reported as > 100000 µg/mL.

Work on `CO[C@H]1/C=C/O[C@@]2(C)Oc3c(C)c(O)c4c(O)c(c(C=NNc5ccc(-c6ccc(C)cc6)nn5)c(O)c4c3C2=O)NC(=O)/C(C)=C\C=C\[C@H](C)[C@H](O)[C@@H](C)[C@@H](O)[C@@H](C)[C@H](OC(C)=O)[C@@H]1C` [Example 11, 3-[3'-(p-tolyl)-pyridazinyl-6'-hydrazonomethyl]-rifamycin SV] yielded a solubility ([1]; Solubility soluble form) of 540 µg/mL (≈ 0.595 mM).

`CO[C@H]1/C=C/O[C@@]2(C)Oc3c(C)c(O)c4c(O)c(c(C=NNc5ccc(-c6ccc(C)c(C)c6)nn5)c(O)c4c3C2=O)NC(=O)/C(C)=C\C=C\[C@H](C)[C@H](O)[C@@H](C)[C@@H](O)[C@@H](C)[C@H](OC(C)=O)[C@@H]1C` [Example 12, 3-[3'-(3",4"-dimethylphenyl)-pyridazinyl-6'-hydrazonomethyl]-rifamycin SV] gave a solubility ([1]; Solubility soluble form) of 540 µg/mL (≈ 0.586 mM).

In the case of `CO[C@H]1/C=C/O[C@@]2(C)Oc3c(C)c(O)c4c(O)c(c(C=NNC(=O)c5ccncc5)c(O)c4c3C2=O)NC(=O)/C(C)=C\C=C\[C@H](C)[C@H](O)[C@@H](C)[C@@H](O)[C@@H](C)[C@H](OC(C)=O)[C@@H]1C` [Example 13, 3-(isonicotinoylhydrazonomethyl)-rifamycin SV], the solubility ([1]; Solubility soluble form) is reported as 168000 µg/mL (≈ 199 mM).

With `CO[C@H]1/C=C/O[C@@]2(C)Oc3c(C)c(O)c4c(O)c(c(C=NNC(=O)Cc5ccccc5)c(O)c4c3C2=O)NC(=O)/C(C)=C\C=C\[C@H](C)[C@H](O)[C@@H](C)[C@@H](O)[C@@H](C)[C@H](OC(C)=O)[C@@H]1C` [Example 14, 3-(phenylacetylhydrazonomethyl)-rifamycin SV] the solubility ([1]; Solubility soluble form) was 71000 µg/mL (≈ 82.8 mM).

Compound `CO[C@H]1/C=C/O[C@@]2(C)Oc3c(C)c(O)c4c(O)c(c(C=NNC(=O)COc5ccccc5)c(O)c4c3C2=O)NC(=O)/C(C)=C\C=C\[C@H](C)[C@H](O)[C@@H](C)[C@@H](O)[C@@H](C)[C@H](OC(C)=O)[C@@H]1C` [Example 15] has a solubility ([1]; Solubility soluble form) of 128000 µg/mL (≈ 146 mM).

In the case of `CO[C@H]1/C=C/O[C@@]2(C)Oc3c(C)c(O)c4c(O)c(c(/C=N/N5CCN(C)CC5)c(O)c4c3C2=O)NC(=O)/C(C)=C\C=C\[C@H](C)[C@H](O)[C@@H](C)[C@@H](O)[C@@H](C)[C@H](OC(C)=O)[C@@H]1C` [rifampicin], the “unsuccessful therapeutic treatments caused by hepatobiliar alterations” value [2] is listed as “over 10%”.
